Experimental data: PubChem BioAssay AID2060507 (Molecular Pharmacology Branch, DTP, NCI, 2025)
pIC50: −log10 of the molar value.

Test system: 519858-162-T-J1-PDC complex spheroid viability
Assay: Anticancer human tumor 519858-162-T-J1-PDC patient-derived colon adenocarcinoma cell line growth inhibition [GQUAD]
Details: for pIC50: curve of first compound; for viability, T/C: stronger effect = lower value
Procedure, shortened: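 Viability of tumor cells grown as complex spheroids with endothelial and stromal cells, exposed to drug combinations. Top concentration at or near clinical Cmax (else 10 microM), diluted in half-log increments.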

[1] = second compound 0.0316 µM, first compound 0.0316 µM
[2] = second compound 0.0316 µM, first compound 0.1 µM
[3] = second compound 0.0316 µM, first compound 0.316 µM
[4] = second compound 0.0316 µM, first compound 1 µM
[5] = second compound 0.0316 µM, first compound 3.16 µM
[6] = second compound 0.0316 µM, first compound 10 µM
[7] = second compound 0.1 µM, first compound 0.0316 µM
[8] = second compound 0.1 µM, first compound 0.1 µM
[9] = second compound 0.1 µM, first compound 0.316 µM
[10] = second compound 0.1 µM, first compound 1 µM
[11] = second compound 0.1 µM, first compound 3.16 µM
[12] = second compound 0.1 µM, first compound 10 µM
[13] = second compound 0.316 µM, first compound 0.0316 µM
[14] = second compound 0.316 µM, first compound 0.1 µM
[15] = second compound 0.316 µM, first compound 0.316 µM
[16] = second compound 0.316 µM, first compound 1 µM
[17] = second compound 0.316 µM, first compound 3.16 µM
[18] = second compound 0.316 µM, first compound 10 µM
[19] = second compound 1 µM, first compound 0.0316 µM
[20] = second compound 1 µM, first compound 0.1 µM
[21] = second compound 1 µM, first compound 0.316 µM
[22] = second compound 1 µM, first compound 1 µM
[23] = second compound 1 µM, first compound 3.16 µM
[24] = second compound 1 µM, first compound 10 µM
[25] = second compound 3.16 µM, first compound 0.0316 µM
[26] = second compound 3.16 µM, first compound 0.1 µM
[27] = second compound 3.16 µM, first compound 0.316 µM
[28] = second compound 3.16 µM, first compound 1 µM
[29] = second compound 3.16 µM, first compound 3.16 µM
[30] = second compound 3.16 µM, first compound 10 µM
[31] = second compound 10 µM, first compound 0.0316 µM
[32] = second compound 10 µM, first compound 0.1 µM
[33] = second compound 10 µM, first compound 0.316 µM
[34] = second compound 10 µM, first compound 1 µM
[35] = second compound 10 µM, first compound 3.16 µM
[36] = second compound 10 µM, first compound 10 µM
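Wherever viability, T/C is given: 100% = DMSO vehicle control viability.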

COc1cc(C2c3cc4c(cc3C(OC3OC5COC(C)OC5C(O)C3O)C3COC(=O)C23)OCO4)cc(OC)c1O (stereo not drawn) + Cc1[nH]c2ccc(F)cc2c1-c1nc2c3cccnc3c3ncccc3c2[nH]1
pIC50 (second compound 0.0316 µM): < 5.00 | pIC50 (second compound 0.1 µM): < 5.00 | pIC50 (second compound 0.316 µM): < 5.00 | pIC50 (second compound 1 µM): < 5.00 | pIC50 (second compound 3.16 µM): < 5.00 | pIC50 (second compound 10 µM): < 5.00 | viability, T/C [1]: 114% | viability, T/C [2]: 99.6% | viability, T/C [3]: 93.8% | viability, T/C [4]: 124% | viability, T/C [5]: 98.2% | viability, T/C [6]: 64.6% | viability, T/C [7]: 127% | viability, T/C [8]: 130% | viability, T/C [9]: 93.2% | viability, T/C [10]: 89.8% | viability, T/C [11]: 55.6% | viability, T/C [12]: 60.4% | viability, T/C [13]: 90.6% | viability, T/C [14]: 109% | viability, T/C [15]: 57.4% | viability, T/C [16]: 86.5% | viability, T/C [17]: 86.9% | viability, T/C [18]: 78.4% | viability, T/C [19]: 88.8% | viability, T/C [20]: 75.8% | viability, T/C [21]: 108% | viability, T/C [22]: 75.9% | viability, T/C [23]: 81% | viability, T/C [24]: 71.4% | viability, T/C [25]: 65.9% | viability, T/C [26]: 76.9% | viability, T/C [27]: 66.9% | viability, T/C [28]: 75% | viability, T/C [29]: 58.6% | viability, T/C [30]: 80.3% | viability, T/C [31]: 69.4% | viability, T/C [32]: 63.4% | viability, T/C [33]: 65.8% | viability, T/C [34]: 68.5% | viability, T/C [35]: 74.8% | viability, T/C [36]: 82.7%

Nc1ccn(C2OC(CO)C(O)C2(F)F)c(=O)n1 (stereo not drawn) + Cc1[nH]c2ccc(F)cc2c1-c1nc2c3cccnc3c3ncccc3c2[nH]1
pIC50 (second compound 0.0316 µM): < 5.00 | pIC50 (second compound 0.1 µM): < 5.00 | pIC50 (second compound 0.316 µM): < 5.00 | pIC50 (second compound 1 µM): < 5.00 | pIC50 (second compound 3.16 µM): < 5.00 | pIC50 (second compound 10 µM): < 5.00 | viability, T/C [1]: 131% | viability, T/C [2]: 69.3% | viability, T/C [3]: 89.4% | viability, T/C [4]: 80.1% | viability, T/C [5]: 83% | viability, T/C [6]: 72.3% | viability, T/C [7]: 85.9% | viability, T/C [8]: 143% | viability, T/C [9]: 70.5% | viability, T/C [10]: 71% | viability, T/C [11]: 82.9% | viability, T/C [12]: 102% | viability, T/C [13]: 93.3% | viability, T/C [14]: 116% | viability, T/C [15]: 78.5% | viability, T/C [16]: 57.9% | viability, T/C [17]: 70% | viability, T/C [18]: 69.8% | viability, T/C [19]: 90.7% | viability, T/C [20]: 81.9% | viability, T/C [21]: 89.5% | viability, T/C [22]: 76.9% | viability, T/C [23]: 84.2% | viability, T/C [24]: 73.7% | viability, T/C [25]: 54.4% | viability, T/C [26]: 76.8% | viability, T/C [27]: 61.9% | viability, T/C [28]: 47.2% | viability, T/C [29]: 95.4% | viability, T/C [30]: 60.5% | viability, T/C [31]: 82.4% | viability, T/C [32]: 73.5% | viability, T/C [33]: 73% | viability, T/C [34]: 68.9% | viability, T/C [35]: 108% | viability, T/C [36]: 54.2%

O=C(c1cc(Cc2n[nH]c(=O)c3ccccc23)ccc1F)N1CCN(C(=O)C2CC2)CC1 + Cc1[nH]c2ccc(F)cc2c1-c1nc2c3cccnc3c3ncccc3c2[nH]1
pIC50 (second compound 0.0316 µM): < 5.00 | pIC50 (second compound 0.1 µM): < 5.00 | pIC50 (second compound 0.316 µM): < 5.00 | pIC50 (second compound 1 µM): < 5.00 | pIC50 (second compound 3.16 µM): > 7.50 | pIC50 (second compound 10 µM): < 5.00 | viability, T/C [1]: 122% | viability, T/C [2]: 85.5% | viability, T/C [3]: 82.7% | viability, T/C [4]: 66.6% | viability, T/C [5]: 68% | viability, T/C [6]: 111% | viability, T/C [7]: 110% | viability, T/C [8]: 85.3% | viability, T/C [9]: 87.7% | viability, T/C [10]: 102% | viability, T/C [11]: 103% | viability, T/C [12]: 63.6% | viability, T/C [13]: 105% | viability, T/C [14]: 97.9% | viability, T/C [15]: 81.9% | viability, T/C [16]: 100% | viability, T/C [17]: 75.6% | viability, T/C [18]: 97.1% | viability, T/C [19]: 82.7% | viability, T/C [20]: 100% | viability, T/C [21]: 102% | viability, T/C [22]: 81.2% | viability, T/C [23]: 69.9% | viability, T/C [24]: 95.3% | viability, T/C [25]: 49.2% | viability, T/C [26]: 63% | viability, T/C [27]: 92% | viability, T/C [28]: 59.2% | viability, T/C [29]: 79.8% | viability, T/C [30]: 71.1% | viability, T/C [31]: 86.1% | viability, T/C [32]: 69.9% | viability, T/C [33]: 52.6% | viability, T/C [34]: 81.6% | viability, T/C [35]: 51.8% | viability, T/C [36]: 53.7%

O=c1[nH]cc(F)c(=O)[nH]1 + Cc1[nH]c2ccc(F)cc2c1-c1nc2c3cccnc3c3ncccc3c2[nH]1
pIC50 (second compound 0.0316 µM): < 5.00 | pIC50 (second compound 0.1 µM): < 5.00 | pIC50 (second compound 0.316 µM): < 5.00 | pIC50 (second compound 1 µM): < 5.00 | pIC50 (second compound 3.16 µM): < 5.00 | pIC50 (second compound 10 µM): < 5.00 | viability, T/C [1]: 138% | viability, T/C [2]: 85.8% | viability, T/C [3]: 80.8% | viability, T/C [4]: 98.3% | viability, T/C [5]: 81.7% | viability, T/C [6]: 87.3% | viability, T/C [7]: 116% | viability, T/C [8]: 103% | viability, T/C [9]: 94% | viability, T/C [10]: 98.6% | viability, T/C [11]: 70.6% | viability, T/C [12]: 84.9% | viability, T/C [13]: 86% | viability, T/C [14]: 103% | viability, T/C [15]: 87.4% | viability, T/C [16]: 83.7% | viability, T/C [17]: 86.5% | viability, T/C [18]: 74.9% | viability, T/C [19]: 101% | viability, T/C [20]: 83.2% | viability, T/C [21]: 75.8% | viability, T/C [22]: 65.7% | viability, T/C [23]: 60.6% | viability, T/C [24]: 89.5% | viability, T/C [25]: 57% | viability, T/C [26]: 69% | viability, T/C [27]: 65.7% | viability, T/C [28]: 75.5% | viability, T/C [29]: 71.3% | viability, T/C [30]: 63% | viability, T/C [31]: 81% | viability, T/C [32]: 78.1% | viability, T/C [33]: 59.6% | viability, T/C [34]: 71.9% | viability, T/C [35]: 83.1% | viability, T/C [36]: 55.6%
